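96-well plates; 48 h exposure; 5 concentrations. Endpoints by linear interpolation between flanking doses. Not reached: highest tested concentration assigned. Abbreviation: GI50, concentration required for 50% inhibition of growth.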 Activity calls are given as the source filed them. Rule as the data show it: active = GI50 up to about 1.1 µM and inactive = higher.
Legend:
Experiment in all cases: NCI-60 cell line screen, 48 h
Hs-578T = tested on: Hs-578T
SW-620 = tested on: SW-620
786-0 = tested on: 786-0
MDA-MB-435 = tested on: MDA-MB-435
RPMI-8226 = tested on: RPMI-8226
NCI-H522 = tested on: NCI-H522
HOP-62 = tested on: HOP-62
SK-MEL-2 = tested on: SK-MEL-2
U-251 = tested on: U-251
SR = tested on: SR
SNB-75 = tested on: SNB-75
IGROV-1 = tested on: IGROV-1
NCI-H226 = tested on: NCI-H226
MDA-MB-231 = tested on: MDA-MB-231
SK-OV-3 = tested on: SK-OV-3
COLO 205 = tested on: COLO 205
UACC-62 = tested on: UACC-62
M14 = tested on: M14
UACC-257 = tested on: UACC-257
HCT-15 = tested on: HCT-15
OVCAR-4 = tested on: OVCAR-4
RXF 393 = tested on: RXF 393
HT-29 = tested on: HT-29
DU-145 = tested on: DU-145
SK-MEL-5 = tested on: SK-MEL-5
MDA-N = tested on: MDA-N
HOP-92 = tested on: HOP-92
NCI/ADR-RES = tested on: NCI/ADR-RES
T47D = tested on: T47D
LOX IMVI = tested on: LOX IMVI
NCI-H460 = tested on: NCI-H460
Malme-3M = tested on: Malme-3M
UO-31 = tested on: UO-31
SF-268 = tested on: SF-268
SF-539 = tested on: SF-539
NCI-H23 = tested on: NCI-H23
OVCAR-8 = tested on: OVCAR-8
K562 = tested on: K562
MCF7 = tested on: MCF7
CCRF-CEM = tested on: CCRF-CEM
OVCAR-5 = tested on: OVCAR-5
SK-MEL-28 = tested on: SK-MEL-28
ACHN = tested on: ACHN
MOLT-4 = tested on: MOLT-4
TK-10 = tested on: TK-10
PC-3 = tested on: PC-3
HCC 2998 = tested on: HCC 2998
BT-549 = tested on: BT-549
A549 = tested on: A549
SF-295 = tested on: SF-295
SN12C = tested on: SN12C
A498 = tested on: A498
KM12 = tested on: KM12
SNB-19 = tested on: SNB-19
HCT-116 = tested on: HCT-116
CAKI-1 = tested on: CAKI-1
HL-60 = tested on: HL-60
EKVX = tested on: EKVX
OVCAR-3 = tested on: OVCAR-3

Measured: GI50

CC1CNC(c2cccc(-c3nc(-c4cccc(C5=NC(C)CN5)c4)nc(N(C)C)n3)c2)=N1 (stereo not drawn)
8.34 µM: HCT-15
inactive: Hs-578T 2.74 µM | 786-0 1.53 µM | MDA-MB-435 1.19 µM | RPMI-8226 2.75 µM | SK-MEL-2 2.02 µM | SNB-75 1.91 µM | IGROV-1 3.28 µM | NCI-H226 1.9 µM | MDA-MB-231 1.32 µM | SK-OV-3 1.58 µM | COLO 205 1.2 µM | UACC-62 1.82 µM | M14 3.5 µM | UACC-257 3.16 µM | RXF 393 3.21 µM | DU-145 2.09 µM | SK-MEL-5 2.59 µM | MDA-N 1.52 µM | HOP-92 3.87 µM | NCI/ADR-RES 16.5 µM | T47D 2.5 µM | LOX IMVI 1.12 µM | NCI-H460 1.94 µM | Malme-3M 3.87 µM | UO-31 3.77 µM | SF-268 2.06 µM | NCI-H23 2.14 µM | OVCAR-8 2.15 µM | OVCAR-5 2.57 µM | SK-MEL-28 3.13 µM | ACHN 3.12 µM | TK-10 2.78 µM | HCC 2998 1.13 µM | BT-549 3.19 µM | A549 2.69 µM | SF-295 3.61 µM | A498 2.05 µM | KM12 1.67 µM | CAKI-1 18.1 µM | HL-60 2.02 µM | EKVX 2.23 µM | OVCAR-3 1.53 µM
active: SW-620 0.721 µM | NCI-H522 0.757 µM | HOP-62 1.08 µM | U-251 0.653 µM | SR 0.45 µM | OVCAR-4 0.771 µM | HT-29 0.895 µM | SF-539 0.454 µM | K562 0.682 µM | MCF7 0.78 µM | CCRF-CEM 0.587 µM | MOLT-4 0.373 µM | PC-3 0.671 µM | SN12C 0.948 µM | SNB-19 0.752 µM | HCT-116 0.491 µM

CCC1(O)CC(O)c2c(O)c3c(c(O)c2C1C(=O)OC)C(=O)c1cccc(O)c1C3=O (stereo not drawn)
inactive: Hs-578T 4.7 µM | SW-620 4.67 µM | 786-0 2.75 µM | MDA-MB-435 5.45 µM | RPMI-8226 2.21 µM | NCI-H522 1.75 µM | HOP-62 3.22 µM | SK-MEL-2 3.12 µM | U-251 3.74 µM | SR 1.12 µM | SNB-75 6.31 µM | IGROV-1 1.39 µM | NCI-H226 3.4 µM | MDA-MB-231 2.9 µM | SK-OV-3 4.49 µM | COLO 205 2.21 µM | UACC-62 3 µM | M14 2.87 µM | UACC-257 3.65 µM | OVCAR-4 2.96 µM | RXF 393 7.67 µM | HT-29 3.27 µM | DU-145 5.42 µM | SK-MEL-5 1.84 µM | MDA-N 5.36 µM | HOP-92 9.31 µM | T47D 3.77 µM | LOX IMVI 2.37 µM | NCI-H460 1.7 µM | Malme-3M 1.94 µM | UO-31 3.18 µM | SF-268 2.44 µM | SF-539 3.85 µM | NCI-H23 3.29 µM | OVCAR-8 1.63 µM | K562 1.96 µM | MCF7 3.28 µM | CCRF-CEM 1.53 µM | OVCAR-5 4.86 µM | SK-MEL-28 11.4 µM | ACHN 3 µM | TK-10 7.67 µM | PC-3 2.86 µM | HCC 2998 4.43 µM | BT-549 6.85 µM | A549 3.64 µM | SF-295 2.66 µM | SN12C 2.92 µM | A498 3.78 µM | SNB-19 2.45 µM | HCT-116 2.89 µM | CAKI-1 3.43 µM | EKVX 2.18 µM | OVCAR-3 2.05 µM
active: NCI/ADR-RES 0.656 µM | MOLT-4 0.415 µM | KM12 1.1 µM | HL-60 0.794 µM
1.54 µM: HCT-15
